Assay results: patent US4804660A, “Ergot cyclic peptide alkaloids having a venotonizing effect, useful for treating orthostatic hypotension” (Sandoz Ltd., priority 1981, dated 1989)

Key:
rat brain = test: carbon-14-2-deoxyglucose autoradiographic technique, local cerebral glucose utilisation; format: in vivo; details: 3 mg/kg i.p.
Procedure: Moreover the compounds increase the local cerebral glucose utilisation in the sensomotor cartex, e.g. Hippocampus, Nucleus habenula, Nucleus corpus gentcul . As indicated by the carbon-14-2-deoxyglucose autoradiographic technique with the rat brain on administration i.p. of from about 0.3 to about 30 mg/kg of the compounds [for method see e.g. L. Solokoff, Journal of Cerebral Blood Flow and Metabolism, 1981, (1), 7-36, H. E. Savaki et al. Brain Research 1982, 233, 347 and J. McCulloch et al. Journal of Cerebral Blood Flow and Metabolism 1981, 1, 133-136.

rat = test: apomorphine stereotypy test / stereotypy in the rat; format: in vivo; details: 30 mg/kg i.p.
Procedure: The compounds moreover induce stereotypy in the rat at a dose of about 30 mg/kg i.p.
and has a score. in the apomorphine stereotypy test of 15.7 at 30 mg/kg i.p .

## 2-methyl-9,10-dihydro-9'-thia-α-ergocryptine
Rat brain; Hippocampus
  increase in local cerebral glucose utilisation, Hippocampus: +2%
Rat brain; Nucleus dors.corpus genicul.lat
  increase in local cerebral glucose utilisation, Nucleus dors.corpus genicul.lat: +25%
Rat brain; Nucleus lateralis huberula
  increase in local cerebral glucose utilisation, Nucleus lateralis huberula: +22%
rat
  score in the apomorphine stereotypy test: 15.7
